Reference: US11819021B2, “Peptides and methods and uses thereof for modulating anaphase promoting complex (APC) activity” (University of Saskatchewan, priority 2017, dated 2023)
Entries after “also recorded” stand apart in the source; their conditions may differ.

Assays:
APC = assay: Yeast 2-hybrid binding to the APC
Description: As used herein, the expression “binds to the APC” refers to a peptide that binds to at least one subunit of the APC, for example Apc5 or Apc10. Binding can be measured for example, by any method known in the art, including, but not limited to a yeast 2-hybrid assay.
The reverse genetic screen utilized a yeast 2-hybrid (Y2H) protocol that selected for peptides that bound to the APC subunits Apc5 or Apc10 (see FIG. 5 for APC structure), to assess whether peptide-binding might modify APC function. Peptides that bound APC subunits were then assayed for those that suppressed APC mutant defects.
Random small peptides were cloned into the TrxA scaffold (library provided by R. Geyer, U of S) and expressed from a galactose-inducible Y2H prey vector in cells harboring either APC5 or APC10 Y2H bait vectors (APC5/APC10 bait constructs complement APC mutant defects).

[1] = system: apc5^CA temperature sensitive mutant; assay: Forward genetic screen: rescue of apc5^CA temperature sensitive growth; type: cell-based, yeast
Description: Using a forward genetic screen to test whether temperature sensitive (ts) APC mutants expressing random small peptides could grow at restrictive temperatures, millions of small peptides were rapidly screened for those that could restore mutant APC phenotypes. Peptides that rescued the apc5^CA ts (temperature sensitive) defect were recovered including peptides Y65 and Y36.
In the forward screens, with galactose-inducible TrxA-based peptide libraries, in cells harboring the apc5^CA ts allele, over 200 peptides (from millions screened) suppressed the ts phenotype. Several recovered plasmids were sequenced.

Cin5 = biological target: T1, Cin5 (Saccharomyces cerevisiae, UniProt P40917); assay: Yeast 2-hybrid with Y65 bait to identify binding partners
T1 construct: expressed in transfected cells; host or cells: yeast Y2H cells
T1 sequence (P40917 1-295): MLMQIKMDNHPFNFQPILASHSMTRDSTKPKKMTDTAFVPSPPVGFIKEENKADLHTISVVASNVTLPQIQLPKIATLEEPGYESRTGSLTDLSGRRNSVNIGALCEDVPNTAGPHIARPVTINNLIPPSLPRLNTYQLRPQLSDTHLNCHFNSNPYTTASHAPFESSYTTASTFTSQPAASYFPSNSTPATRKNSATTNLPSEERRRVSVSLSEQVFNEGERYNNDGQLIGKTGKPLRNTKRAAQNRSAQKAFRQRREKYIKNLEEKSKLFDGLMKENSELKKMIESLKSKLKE
Description: One peptide in particular, Y65, was of interest because it had homology to Elongin C (Elc1; Y65 is 20 amino acids in length, with a 7 residue stretch sharing 86% identity and 100% similarity with Elc1). Elc1 is a ubiquitin-protein ligase (E3) conserved among eukaryotes that is involved in DNA repair (Harreman et al, 2009; Ribar et al, 2007). To identify what the peptides bound in order to modify APC activity, Y65 was cloned into the Y2H bait vector and used to identify binding partners.

“VRQKSDKEYERVLGLGLRRL [Y65, Peptide with homology to Elc1]” was tested, and the “Binding to the APC in a yeast 2HY assay” value (APC) was “not bind the APC in a yeast 2HY”, the “apc5^CA temperature sensitive (ts) growth / viability of an apc5 temperature sensitive mutant” value [1] was “increases the viability; also recorded: rescued; also recorded: Rescues apc5^CA temperature” and the “Interaction with Cin5 in a yeast 2 hybrid assay” value (Cin5) was “One peptide binding partner was isolated, Cin5; also recorded: Interacts with Cin5 in a yeast 2”.
